Where two headings read alike, the source gives them in different places.
Columns and labels:
CH1cisR6 cells [1] = conditions: acquired cisplatin-resistant line versus parent
41McisR6 cells [2] = assay: SRB cytotoxicity assay, 41McisR6; format: cell-based, human; conditions: acquired cisplatin-resistant line versus parent
[3] = biological target: T1, calmodulin-dependent cyclic AMP phosphodiesterase (Homo sapiens, UniProt P0DP23); assay: Inhibition of calmodulin-dependent cyclic AMP phosphodiesterase; format: biochemical; conditions: unpublished data of the authors
Excerpt: (§1) Sary Pyroidno-4-iodotamoxifen (idoxifene) is a new non-steroidal antioestrogen currently undergoig phase I clnical evaluation. […] One agent that has featured in studies of both doxorubicin and cilatin resist- ance has been the extensively used antioestrogen tamoxifen. […] Tlhe purposes of this study were 3-fold. Initially, using a series of tamoxifen analogues of known inhibitory constants for calmodulin, the effect of increasing calmodulin inhibition on cytotoxicity against four human ovarian carcnoma cell lines was determined. […] Materials and mehod Drugs and chemicals The structures of tamoxifen and the various analogues of tamoxifen used are illustrated in Figure 1. […] Calmidazolium (R24571), Correspondence: L.R. Kelland, Drug Development Section, The Institute of Cancer Research, Block E, 15 Cotswold Road, Sutton, Surrey SM2 5NG, UK. […] Cytotoxicity data were then fitted to regression lines, and the concentration of each drug which produced a given level of cytotoxicity (fractional effect, Fa) alone or in combination was determined. Combination index (CI) for a given Fa was calculated as: CI = d' + td D-1 + D2 where DI and D2 are the doses of drugs 1 and 2, which by themselves produce a given Fa (i.e. IC5o); d' and d2 are the doses which produce the same Fa in combination. […]

CH1 cells [4] = assay: DNA interstrand cross-link repair by alkaline elution, CH1; format: cell-based, human
Excerpt: as §1

CH1cisR6 cells [5] = assay: DNA interstrand cross-link repair by alkaline elution, CH1cisR6; format: cell-based, human
Excerpt: as §1

CH1 cells [6] = assay: SRB cytotoxicity assay, CH1; conditions: Homo sapiens, CH1, read-out: 96 h IC50, doxorubicin cytotoxicity, CH1
CH1doxR cells = assay: SRB cytotoxicity assay, CH1doxR; conditions: for Rf, resistance factor (IC50 resistant line/IC50 parent line), CH1doxR/CH1: doxorubicin resistance
Excerpt: (§2) Sary Pyroidno-4-iodotamoxifen (idoxifene) is a new non-steroidal antioestrogen currently undergoig phase I clnical evaluation. […] One agent that has featured in studies of both doxorubicin and cilatin resist- ance has been the extensively used antioestrogen tamoxifen. […] Tlhe purposes of this study were 3-fold. Initially, using a series of tamoxifen analogues of known inhibitory constants for calmodulin, the effect of increasing calmodulin inhibition on cytotoxicity against four human ovarian carcnoma cell lines was determined. […] Materials and mehod Drugs and chemicals The structures of tamoxifen and the various analogues of tamoxifen used are illustrated in Figure 1. […] Calmidazolium (R24571), Correspondence: L.R. Kelland, Drug Development Section, The Institute of Cancer Research, Block E, 15 Cotswold Road, Sutton, Surrey SM2 5NG, UK. […] Briefly, the analysis compares the effects of drug combinations to the effects of individual drugs across the entire dose-effect range. Cytotoxicity data were then fitted to regression lines, and the concentration of each drug which produced a given level of cytotoxicity (fractional effect, Fa) alone or in combination was determined. Combination index (CI) for a given Fa was calculated as: CI = d' + td D-1 + D2 where DI and D2 are the doses of drugs 1 and 2, which by themselves produce a given Fa (i.e. IC5o); d' and d2 are the doses which produce the same Fa in combination. CI= I indicates zero interaction (additive cytotoxicity), CI <I indicates synergy and CI> 1 indicates antagonism (Chou computer program, Biosoft). […] All cell lines were grown as monolayers in Dulbecco's modified Eagle medium (DMEM) supplemented with 10% heat-iactivated fetal calf serum (Imperial Laboratores, Andover, UK), 50 gml-' gentamic 2.5 jg ml-' ampho- tericin B, 2 mM L-glutmie 10 jag ml- insulin and 0.5 jgmml' hydrocorisone in a 10% carbon dioxide, 90% air atmosphere. […] Assssment of cytotoxicity Tamoxifen and the analogues of tamoxifen were dissolved immediately before use in absolute ethanol at 20 mM. […]

41MdoxR cells = assay: SRB cytotoxicity assay, 41MdoxR; conditions: for Rf, resistance factor (IC50 resistant line/IC50 parent line), 41MdoxR/41M: doxorubicin resistance
Excerpt: as §2

41M cells = assay: SRB cytotoxicity assay, 41M; conditions: Homo sapiens, read-out: 96 h IC50, doxorubicin cytotoxicity, 41M
Excerpt: as §1

41McisR6 cells [7] = assay: Intracellular platinum accumulation (flameless atomic absorption), 41McisR6; format: cell-based, human; conditions: 2 h exposure to cisplatin alone or with 2 microM idoxifene
Excerpt: as §1

[8] = system: human ovarian carcinoma cell lines; assay: Highest non-toxic concentration of the resistance modifiers, preliminary experiments; format: cell-based; conditions: <10% cell kill in any one cell line; continuous drug exposure
Excerpt: as §1

CH1cisR6 cells [9] = assay: Intracellular platinum accumulation (flameless atomic absorption), CH1cisR6; format: cell-based, human; conditions: 2 h exposure to cisplatin alone or with 2 microM idoxifene
Excerpt: as §1

[10] = biological target: T1, calmodulin-dependent cyclic AMP phosphodiesterase; design: method as in Rowlands et al., 1990; conditions: values taken from previous determinations; ref Rowlands et al., 1990; read-out: calmodulin IC50 (inhibition of calmodulin-dependent cyclic AMP phosphodiesterase); cited from earlier work
[11] = system: four human ovarian carcinoma cell lines; assay: cells; conditions: read-out: mean IC50 across four human ovarian carcinoma cell lines (cytotoxicity)
Excerpt: as §1

[12] = after 2 h exposure to cisplatin 25 microM, removed at 2 h versus 5 h (so in the source)
[13] = after 2 h cisplatin 25 microM, removal in presence of 2 microM idoxifene

For CC/C(=C(/c1ccc(OCCN(C)C)cc1)c1cccc(O)c1)c1ccccc1 [3-hydroxytamoxifen], the “Rf, resistance factor (IC50 resistant line/IC50 parent line), CH1cisR6/CH1” value (“Rf, resistance factor … CH1cisR6/CH1” below) (CH1cisR6 cells [1]) was under 1, the “Rf, resistance factor (IC50 resistant line/IC50 parent line), 41McisR6/41M” value (from here on “Rf, resistance factor … 41McisR6/41M”) (41McisR6 cells [2]) was under 1 and the IC50 [3] was 13000 nM.
For CC/C(=C(/c1ccc(I)cc1)c1ccc(OCCN(C)C)cc1)c1ccccc1 [4-iodotamoxifen], the “Rf, resistance factor … CH1cisR6/CH1” value (CH1cisR6 cells [1]) was under 1 and the “Rf, resistance factor … 41McisR6/41M” value (41McisR6 cells [2]) was under 1.
In the case of Clc1ccc(C(c2ccc(Cl)cc2)n2cc[n+](CC(OCc3ccc(Cl)cc3Cl)c3ccc(Cl)cc3Cl)c2)cc1 (stereo not drawn) [calmidazolium], the “Rf, resistance factor … CH1cisR6/CH1” value (CH1cisR6 cells [1]) is reported as under 1 and the “Rf, resistance factor … 41McisR6/41M” value (41McisR6 cells [2]) is reported as under 1.
With N.N.[Cl][Pt][Cl] [cisplatin, cis-diamminedichloroplatinum (II)] the “removal of cross-links, CH1” value (CH1 cells [4]; [12]) was 15% and the “removal of cross-links, CH1cisR6” value (CH1cisR6 cells [5]; [12]) was 90%.
For COc1cccc2c1C(=O)c1c(O)c3c(c(O)c1C2=O)C[C@@](O)(C(=O)CO)C[C@@H]3O[C@H]1C[C@H](N)[C@H](O)[C@H](C)O1 [doxorubicin], the IC50 (CH1 cells [6]) was 5.3 nM, the IC50 (CH1doxR cells; Homo sapiens, read-out: 96 h IC50, doxorubicin cytotoxicity, CH1doxR) was 460 nM and the “Rf, resistance factor (IC50 resistant line/IC50 parent line), CH1doxR/CH1” value (CH1doxR cells) was about 90. The “Rf, resistance factor (IC50 resistant line/IC50 parent line), CH1doxR/CH1” value (CH1doxR cells; listed as Doxorubicin) was 87, the IC50 (41MdoxR cells; Homo sapiens, read-out: 96 h IC50, doxorubicin cytotoxicity, 41MdoxR) was 280 nM and the “Rf, resistance factor (IC50 resistant line/IC50 parent line), 41MdoxR/41M” value (41MdoxR cells) was “approximately 7”. The “Rf, resistance factor (IC50 resistant line/IC50 parent line), 41MdoxR/41M” value (41MdoxR cells; listed as Doxorubicin) was 7.2 and the IC50 (41M cells) was 39 nM.
For CC/C(=C(\c1ccc(I)cc1)c1ccc(OCCN2CCCC2)cc1)c1ccccc1 [idoxifene, Pyrrolidino-4-iodotamoxifen], the “effect on rate of DNA interstrand cross-link (ISC) removal, CH1” value (CH1 cells [4]; [13]) was “did not markedly affect”, the “effect on platinum accumulation, 41McisR6” value (41McisR6 cells [7]) was “no significant difference” and the highest non-toxic concentration [8] was 2 µM. The “effect on platinum uptake, CH1cisR6” value (CH1cisR6 cells [9]) was “no difference in uptake”, the IC50 [10] was 1400 nM and the IC50 [11] was 4500 nM. For the same compound, the “Rf, resistance factor … CH1cisR6/CH1” value (CH1cisR6 cells [1]) was under 1, the “Rf, resistance factor … 41McisR6/41M” value (41McisR6 cells [2]) was under 1 and the “effect on rate of DNA interstrand cross-link (ISC) removal, CH1cisR6” value (CH1cisR6 cells [5]; [13]) was “did not markedly affect”.
With CC/C(=C(\c1ccccc1)c1ccc(OCCN(C)C)cc1)c1ccccc1 [tamoxifen] the highest non-toxic concentration [8] was 4 µM, the IC50 [11] was 6300 nM and the “Rf, resistance factor … CH1cisR6/CH1” value (CH1cisR6 cells [1]) was under 1. For the same compound, the “Rf, resistance factor … 41McisR6/41M” value (41McisR6 cells [2]) was under 1.
